Test results from patent US20220220095A1, “N-((HETEROARYL)METHYL)-1-TOSYL-1H-PYRAZOLE-3-CARBOXAMIDE DERIVATIVES AS Kv3 POTASSIUM CHANNEL ACTIVATORS FOR TREATING NEUROLOGICAL AND [sequence] DISORDERS” (H. Lundbeck A/S, priority 2019, published 2022).

Target: T1, hKv3.1b (Homo sapiens, UniProt P48547)
T1 construct: expressed in transfected cells
T1 sequence (P48547 1-585 isoform P48547-2): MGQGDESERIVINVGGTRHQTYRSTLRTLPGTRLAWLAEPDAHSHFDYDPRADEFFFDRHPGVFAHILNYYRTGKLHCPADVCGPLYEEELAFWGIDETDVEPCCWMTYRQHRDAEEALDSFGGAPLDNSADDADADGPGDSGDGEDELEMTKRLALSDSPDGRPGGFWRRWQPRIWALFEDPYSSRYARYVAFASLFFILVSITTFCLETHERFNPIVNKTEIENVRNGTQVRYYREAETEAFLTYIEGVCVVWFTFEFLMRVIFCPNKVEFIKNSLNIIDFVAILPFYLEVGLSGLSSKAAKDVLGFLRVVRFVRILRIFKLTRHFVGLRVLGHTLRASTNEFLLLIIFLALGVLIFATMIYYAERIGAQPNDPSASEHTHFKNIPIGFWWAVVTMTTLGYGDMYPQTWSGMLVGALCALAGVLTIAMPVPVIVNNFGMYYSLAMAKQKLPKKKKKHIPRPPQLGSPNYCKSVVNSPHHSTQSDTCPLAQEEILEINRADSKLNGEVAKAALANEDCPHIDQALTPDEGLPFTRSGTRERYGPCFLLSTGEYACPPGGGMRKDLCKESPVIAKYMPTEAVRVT
Test: Automated whole-cell patch-clamp (QPatch-16x) on HEK-293 cells stably expressing hKv3.1b: shift of voltage threshold for channel activation
Format: cell-based
Conditions: HEK-293 hKv3.1b; for ECdelta5mV: concentration needed to shift the threshold 5 mV, read out from fitted concentration response curve; for Max Delta threshold: maximum absolute shift of activation threshold to more hyperpolarized potentials at the tested concentrations (0.37, 1.11, 3.33, 10, 30 μM)

| Structure (SMILES) | ECdelta5mV [nM] | Max Delta threshold [mV] |
| --- | --- | --- |
| Cn1ccc(CNC(=O)c2ccn(S(=O)(=O)c3ccc(F)cc3)n2)n1 [Compound 35, 1-(4-fluorobenzene-1-sulfonyl)-N-[(1-methyl-1H-pyrazol-3-yl)methyl]-1H-pyrazole-3-carboxamide] | 4800 | 12 |
| Cc1noc(CNC(=O)c2ccn(S(=O)(=O)c3ccccc3C)n2)n1 [Compound 23, 1-(2-methylbenzene-1-sulfonyl)-N-[(3-methyl-1,2,4-oxadiazol-5-yl)methyl]-1H-pyrazole-3-carboxamide] | 5300 | 13 |
| Cc1ccc(S(=O)(=O)n2ccc(C(=O)NCc3cnc(C)nc3)n2)cc1 [Compound 50, 1-(4-methylbenzene-1-sulfonyl)-N-[(2-methylpyrimidin-5-yl)methyl]-1H-pyrazole-3-carboxamide] | 1700 | 24 |

Results, then the compound that gave them:

| ECdelta5mV [nM] | Max Delta threshold [mV] | Structure (SMILES) |
| --- | --- | --- |
| 2400 | 33 | Cc1cnc(CNC(=O)c2ccn(S(=O)(=O)c3ccc(Cl)cc3F)n2)cn1 [Compound 73, 1-(4-chloro-2-fluoro-phenyl)sulfonyl-N-[(5-methylpyrazin-2-yl)methyl]pyrazole-3-carboxamide] |
| 1600 | 25 | Cc1ccc(S(=O)(=O)n2ccc(C(=O)NCc3cnn(C)c3)n2)cc1 [Compound 62, 1-(4-methylbenzene-1-sulfonyl)-N-[(1-methyl-1H-pyrazol-4-yl)methyl]-1H-pyrazole-3-carboxamide] |
| 3000 | 17 | Cc1cnc(CNC(=O)c2ccn(S(=O)(=O)c3cc(C)c(F)c(C)c3)n2)cn1 [Compound 81, 1-(4-fluoro-3,5-dimethyl-phenyl)sulfonyl-N-[(5-methylpyrazin-2-yl)methyl]pyrazole-3-carboxamide] |
